SMILES strings stand for the structures.

The conditions of data set [1]: women of child-bearing age who just get off treatment; cited from earlier work.
Data set [2] can be described thus: Solubility of Tazarotene in water. The format is physicochemical. The source says:
The invention is directed to capsule systems for the delivery of active agents, particularly retinoids. In a preferred example, it is known that the compound Tazarotene, known chemically as ethyl 6-[(4,4-dimethylthiochroman-6-yl)ethynyl]-nicotinate, having the molecular formula C21H21NO2S, is active in the treatment of acne and psoriasis. […] However, the solubility of Tazarotene in water is negligible.

Data set [3] can be described thus: Amount of Tazarotene solubilized in caprylic/capric triglyceride per capsule. The format is physicochemical. Particulars: caprylic/capric triglyceride vehicle. The source says: Importantly, the retinoid agent, Tazarotene, is fully dissolved in the vehicle in a conventional manner before incorporation into the capsule shell. The total dissolution of Tazarotene in the vehicle facilitates absorption from the gastro-intestinal tract by eliminating the need for drug dissolution prior to absorption.

Take `CC1=C(/C=C/C(C)=C/C=C/C(C)=C\C(=O)O)C(C)(C)CCC1` [isotretinoin]: the “typical precautionary pregnancy wash-out period” value in data set [1] is reported as “one month”.
For `CCOC(=O)c1ccc(C#Cc2ccc3c(c2)C(C)(C)CCS3)nc1` [Tazarotene, ethyl 6-[(4,4-dimethylthiochroman-6-yl)ethynyl]-nicotinate], in data set [2], the solubility in water result is listed as “negligible”. In data set [3], the “amount effectively solubilized in a capsule” value is “up to 34 mg”.
As to `COc1cc(C)c(/C=C/C(C)=C/C=C/C(C)=C/C(=O)O)c(C)c1C` [acitretin], the “typical precautionary pregnancy wash-out period” value in data set [1] is listed as “three years”.

The values are drawn from patent US6656500B2, “Capsule system” (Allergan, Inc., priority 1999, dated 2003).
